According to patent publication US20020032173A1, “Blood flow improvers and thrombosis preventives or remedies” (Koyo Chemical Co., Ltd., priority 2000, published 2002):
Several values for one entry are separate records, joined by “and”; a condition that tells them apart may be missing. Equal values may be shown once.

Assays:
adult volunteers [1] = assay: Test 3: whole blood transit time by MC-FAN after oral N-acetylglucosamine; format: in vivo, human; settings: mean before administration 60.9 sec
Protocol: From each of adult volunteers (A: male, B: female, C: female, D: female, E: male) who had taken usual breakfast, a first blood sample (10 mL) was collected at 1:00 p.m. Immediately after the collection of the blood sample, 1.5 g of glucosamine hydrochloride with 50 mL of water was administered to the volunteer. Blood samples (10 mL, each; 5% heparinated) were collected upon elapsed time of 30 min, 60 min and 90 min after the administration. The fluidity of each blood sample was determined by a microchannel array flow analyzer (MC-FAN) which is a capillary model fabricated by VLSI technology. The determination was carried out as will be described below. […] A transit time necessary for 100 μL of the whole blood sample to pass through the microchannels was measured. Using a transit time necessary for 100 μL of physiological saline to pass through the microchannels as measured just before the blood measurement, the transit time of the whole blood sample was converted in accordance with the following equation: Transit time of the whole blood x 12 sec/transit time of the physiological saline to obtain a value which would have been available if the transmit time of physiological saline had been 12 sec. The value was recorded as a blood transit time. […]

adult volunteers [2] = assay: Test 1: blood flow improving effects, whole blood transit time by microchannel array flow analyzer (MC-FAN) after oral glucosamine hydrochloride; format: in vivo, human; settings: for Transit time: 100 μL heparinated whole blood; for Transit time, Mean: mean of 5 volunteers, mean before administration 50.3 sec
Protocol: From each of adult volunteers (A: male, B: female, C: female, D: female, E: male) who had taken usual breakfast, a first blood sample (10 mL) was collected at 1:00 p.m. Immediately after the collection of the blood sample, 1.5 g of glucosamine hydrochloride with 50 mL of water was administered to the volunteer. Blood samples (10 mL, each; 5% heparinated) were collected upon elapsed time of 30 min, 60 min and 90 min after the administration. The fluidity of each blood sample was determined by a microchannel array flow analyzer (MC-FAN) which is a capillary model fabricated by VLSI technology. The determination was carried out as will be described below. A fresh 5%-heparinated whole blood sample, which had been obtained by adding 0.5 part by weight of a 1,000 IU/mL heparin sodium solution to 9.5 parts by weight of the corresponding blood sample, was caused to flow through an array of 8,736 parallel microchannels of 7 μm in width, 30 μm in length and 4.5 μm in depth (Bloody 6-7) under 20 cmH2O suction by using the microchannel array flow analyzer (MC-FAN). A transit time necessary for 100 μL of the whole blood sample to pass through the microchannels was measured. Using a transit time necessary for 100 μL of physiological saline to pass through the microchannels as measured just before the blood measurement, the transit time of the whole blood sample was converted in accordance with the following equation: Transit time of the whole blood x 12 sec/transit time of the physiological saline to obtain a value which would have been available if the transmit time of physiological saline had been 12 sec. The value was recorded as a blood transit time. The results are shown in Table 1, including indices of whole blood transit times of the blood samples collected after the administration of the glucosamine hydrochloride based on those of the corresponding blood samples collected before the administration of glucosamine hydrochloride (% relative to an initial value of 100%).

Row | Compound | mean blood transit time (adult volunteers [1]; 30 min after administration as in Test 1) [s] | mean blood transit time (adult volunteers [1]; 1 hr after administration as in Test 1) | Index (%) of whole blood transit time relative to initial value of 100% (adult volunteers [2]; 30 min after oral 1.5 g) [%] | Index (%) of whole blood transit time relative to initial value of 100% (adult volunteers [2]; 60 min after oral 1.5 g) [%] | Transit time (adult volunteers [2]; individual volunteer E, 90 min after oral 1.5 g with 50 mL water) [s] | Transit time (adult volunteers [2]; individual volunteers A-E, 30 min after oral 1.5 g with 50 mL water, normalised to saline 12 sec, hydrochloride) | Transit time (adult volunteers [2]; individual volunteers A-E, 60 min after oral 1.5 g with 50 mL water, hydrochloride) | Transit time, Mean (adult volunteers [2]; 30 min after oral 1.5 g) [s] | Transit time, Mean (adult volunteers [2]; 60 min after oral 1.5 g) [s]
1 | CC(=O)N[C@H]1C(O)O[C@H](CO)[C@@H](O)[C@@H]1O (stereo partly drawn) [N-acetylglucosamine] | 36.5 | increased back to the value before the administration | – | – | – | – | – | – | –
2 | Cl.N[C@H]1C(O)O[C@H](CO)[C@@H](O)[C@@H]1O (stereo partly drawn) [glucosamine hydrochloride] | – | – | 70.0 | 67.1 | 31.6 | 35.3 s and 36.1 s and 28.6 s and 38.6 s and 37.1 s | 28.7 s and 37.1 s and 27.4 s and 42.3 s and 33.2 s | 35.1 | 33.7
